Experiments:
[1] = test system: STING agonist (MSA-2) stimulation; experiment: In vivo anti-inflammatory effect of injection administration on STING agonist (MSA-2) stimulation; parameters: species or system C57BL6 female mice; conditions: I-77 10mpk, IP
Method: 6-8 week C57BL6 female mice, purchased from Shanghai Jihui Experimental Animal Breeding Co., Ltd. Compound preparation method: 2 mg of I-77 powder was taken, 12 µL of PEG400 was added thereto and ultrasonically dissolved, and then 8 µL of Tween 80 was added and ultrasonically mixed to prepare a 100 mg/mL stock solution.
Experimental grouping: The control group was administered vehicle solvent; The model group was administered MSA-2 (10mpk, dissolved in 40% PEG400); The treatment group (I-77) was administered MSA-2 and I-77 (10mpk, IP). A final concentration of […] of I-77 solution was prepared by dilution with double distilled water, and 200 µL of the solution was taken and injected intraperitoneally into the mice in treatment group; The control group and MSA-2 group were injected intraperitoneally with 200 µL of vehicle solvent diluted 10 times. […] After high-speed centrifugation of blood samples, the plasma was taken and diluted by 2 times, and the levels of CXCL10 and IL6 in the plasma were detected using the Lianke ELISA kit. RNA was extracted from heart and kidney samples, and reversed to cDNA, and inflammation related cytokines (ISG15, ISG56, IL6, and IP10) in tissues were detected using qPCR technology. […]

[2] = test system: ISG gene expression induced by MSA-2 in human THP1-Dual cells; experiment: Inhibition of MSA-2-induced ISG gene expression in human THP1-Dual cells (QUANTI-Luc); format: cell-based; conditions: STING agonist MSA-2 10 µM, incubated for 24 hours
Method: (§1) 10 µL of compound diluted with PBS/physiological saline was added to each well of a 96 well cell culture plate. The STING agonist was MSA-2, which was added to the counted cell suspension at a final concentration of 10 µM. For the control group without compounds, 10 µL of PBS/physiological saline containing 2% DMSO was added. 3 replicate wells were set in each group. THP1-Dual cells were counted and adjusted to a cell concentration of 4×10^5/mL, and 190 µL of cells containing STING agonist were added to each well for incubation. Therefore, the final volume of each test well was 200 µL, the content of DMSO was 0.1%, and the final concentration of the compound tested was 10/3.3/1.1/0.4/0.13/0.04/0.013/0.004 µM, incubated for 24 hours. In addition, 190 µL of cells without STING agonist and 10 µL of physiological saline containing 2% DMSO were added to the blank group. 3 replicate wells were set in each group.
After 24 hours, 20 µL of culture medium for THP1-Dual cells was taken from each well and transferred to a new 96 well plate with photopermeable bottom. 50 µL of the luciferase detection reagent QUANTI-Luc™ was added, and the […] was immediately measured (avoid light). Result analysis:Inhibition rate (%) = (Con(Lum)−Treated(Lum))/Con(Lum) × 100% [formula]
(§2) The IC50 calculation of inhibitors was implemented using the Graphpad Prism 8 software's calculation method log (inhibitor) vs. response - Variable slope (four parameters), with a constrain interval of 0-100.

[3] = test system: ISG gene expression induced by MSA-2 in human THP1-Blue-ISG cells; experiment: Inhibition of MSA-2-induced ISG gene expression in human THP1-Blue-ISG cells (Quanti-Blue, OD650); format: cell-based; conditions: STING agonist MSA-2 10 µM, incubated for 24 hours
Method: as §1, with “THP1-Blue-ISG” for “THP1-Dual”, “4× 10^5/mL,” for “4×10^5/mL,”
After 24 hours, 20 µL of culture medium was taken from each well and transferred to a new 96 well plate. 180 µL of chromogenic solution Quanti-Blue was added. The plate was placed in a 37 °C incubator. After 2 hours, the OD650 values were measured.
Result analysis: Inhibition rate (%) = (Con(OD650)−Treated(OD650))/Con(OD650) × 100% [formula]
as §2

[4] = test system: STING-V154M mutant autoimmune mouse disease model; experiment: Inflammatory inhibitory effect of oral administration in STING-V154M mutant autoimmune mouse disease model; format: in vivo; conditions: I-77 20mpk
Method: The model mice were purchased from GEMPHARMATECH CO., LTD., and the wild-type C57/BL6 mice were also purchased from GEMPHARMATECH CO., LTD... Compound preparation method: 2 mg of I-77 powder was taken, 12 µL of PEG400 was added thereto and ultrasonically dissolved, and then 8 µL of Tween 80 was added and ultrasonically mixed to prepare a 100 mg/mL stock solution.
Experimental grouping: Wild type mice control group (Control) was administered vehicle solvent; The model mice group (Model) was administered solvent; The treatment group (I-77) was administered I-77 (20mpk, PO) to the model mice. The mice in the I-77 treatment group were intragastrically administered 200 µL of I-77 solution at a final concentration of […] which was prepared by dilution with double-distilled water; The same dose of solvent was administered to the remaining groups until the mortality rate of the model group exceeded 50%. The kidneys and heart were collected from the experimental endpoint samples. RNA extraction was performed on heart and kidneys samples, and the RNA was reversed to cDNA. Changes in gene expression of inflammation related cytokines (ISG15, CCL5, IP10, ISG56) in the tissues were detected using qPCR technology. Statistical method: One way ANOVA, *P<0.05, **P<0.01, ***P<0.001, ***P<0.0001.

## CC1(C)C(=O)N(Cc2ccsc2)c2cc(C(=O)Nc3c[nH]c4ccccc34)ccc21 [Example I-77, N-(1H-indol-3-yl)-3,3-dimethyl-2-oxo-1-(thien-3-ylmethyl)indolin-6-carboxamide]
[1]; 3 hours before MSA-2 (10mpk), plasma ELISA 3 hours after MSA-2, Figure 1
  IL6 and IP10 levels in plasma stimulated by MSA-2: significantly inhibit the increase
[1]; qPCR of ISG15, ISG56, IL6, IP10 in tissues, Figures 2, 3
  inflammatory response of the heart and kidneys induced by MSA-2 stimulation: suppress the inflammatory response
[2]
  IC50: 0.63 nM
[3]
  IC50: 162 nM
[4]; qPCR of ISG15, CCL5, IP10, ISG56 in heart and kidneys, Figures 8, 9
  cardiac and renal inflammatory responses of STING V154M mutant model mice: inhibit the cardiac and renal inflammatory responses
[4]; until mortality of the model group exceeded 50%, Figure 7
  survival of STING V154M mutant model mice: significantly prolong the survival

Reference: patent EP4748844A1, “AZETIDINE COMPOUND AND MEDICAL USE THEREOF” (SHANGHAI INSTITUTE OF MATERIA MEDICA, CHINESE ACADEMY OF …, priority 2023, dated 2025)
